Data from patent US11578074B2, “Nitrogenous heterocyclic compound, preparation method, intermediate, composition, and application” (SHANGHAI PHARMACEUTICALS HOLDING CO., LTD., priority 2017, dated 2023).

What was measured:
EGFR kinase = EGFR kinase (Homo sapiens, UniProt P00533); assay: EGFR/ErbB2 enzymatic experiment (HTRF kinEASE-TK), EGFR; format: biochemical; conditions: EGFR kinase 0.06 units/μL, ATP 1.65 μM; read-out: Kinase IC50 (nM) in vitro EGFR
Procedure: (§1) EGFR/ErbB2 Enzymatic Experiment
(§2) Firstly, 1× reaction buffer required for the kinase was prepared, then 5× Enzymatic buffer (HEPES 20 mM pH 7.0, NaN3 0.1%, BSA 0.05%, sodium orthovanadate 0.5 mM) was diluted in HTRF kinEASE-TK kit by 1 time with deionized water, and 50 nM Supplement Enzymatic buffer (SEB REAGENT), 1 mM MnCl2, 5 mM MfCl2, 1 mM DTT were added. Secondly, 5× compound was prepared, and 10 mM test compound storage solution was diluted in multiple steps with DMSO in a 96-well compound plate to prepare 100× compound as an initial concentration, which was then used as the first concentration to carry out a 3-fold gradient dilution with DMSO to obtain a total of 10 concentrations. Then 1 μL of gradient diluent was added to 19 μL of 1× reaction buffer to prepare 5× compound for later use. Then 2 μL of 5× compound was transferred from the 96-well plate into a 384-well plate. To the compound-free control wells was added 2 μL of the following liquid: 19 μL of 1× reaction buffer with addition of 1 μL of DMSO. To the blank control well was added 2 μL of 250 mM EDTA. […] In the fourth step of reaction termination, HTRF Detection buffer was used to prepare a mixture of 2×TK Antibody-EU (K) and Sa-XL665, and the amount of TK Antibody-EU (K) was 5 μL per well. After the enzyme reaction was carried out for 30 minutes, 10 μL of the above liquid was added to a 384-well plate, and the reaction was carried out at room temperature for 1 hour. […] RFU665 nM and RFU620 nM were measured, and RFU665 nM/RFU620 nM×10000 was used as final data for analysis.

[1] = test system: N87 (human gastric cancer cell NCI-N87); assay: In vitro proliferation inhibition assay of cell lines (CellTiter-Glo), N87; format: cell-based; conditions: N87 cells, 72 hours
Procedure: (§3) In Vitro Proliferation Inhibition Assay of Cell Lines
(§4) 1. Cell culture and inoculation: on the first day of the experiment, normal cultured cells were taken, and in the exponential growth state, after digestion and dispersion, the cell density was then adjusted to 8.8×10^4 cells/mL for BT-474, and 6.6×10^4 cells/mL for N87, and 90 μL of which were inoculated to each well of a 96-well cell culture plate; after the inoculation was completed, the microplate was cultured under the conditions of 37° C. and 5% CO2 overnight. 2. Dosing to the cells: on the second day of the experiment, the microplate was taken out from the incubator, and 10 μL of 10× compound was added to each well of the microplate, setting 2 duplicate wells for each drug concentration and 9 dosing concentrations for each compound. According to different cell lines, the initial concentration of each compound was different. Upon completion of addition, the microplate was placed under the conditions of 37° C. and 5% CO2 for 72 hours. 3. Data acquisition: the microplate was taken out from the incubator and was allowed to equilibrate at room temperature for 30 minutes. 100 μL of CellTiter-Glo® Luminescent Cell Viability Assay reaction solution which had been equilibrated at room temperature was added to each well, and the reaction solution was shaken at 1300 rpm for 2 minutes at room temperature. After that, the microplate was placed in HERAEUS Multifuge X1R centrifuge, centrifuged at 2000 rpm for 1 minute, and allowed to equilibrate at room temperature for 10 minutes. The fluorescence signal value was measured on EnVision™.

ErbB2 kinase = biological target: T1, ErbB2 kinase (Homo sapiens, UniProt P04626); assay: EGFR/ErbB2 enzymatic experiment (HTRF kinEASE-TK), ErbB2; format: biochemical; conditions: ErbB2 kinase 0.06 ng/μL, ATP 4 μM; read-out: Kinase IC50 (nM) in vitro ErbB2
T1 construct: The final concentration of ErbB2 kinase was 0.06 ng/μL
T1 sequence (P04626 23-1255): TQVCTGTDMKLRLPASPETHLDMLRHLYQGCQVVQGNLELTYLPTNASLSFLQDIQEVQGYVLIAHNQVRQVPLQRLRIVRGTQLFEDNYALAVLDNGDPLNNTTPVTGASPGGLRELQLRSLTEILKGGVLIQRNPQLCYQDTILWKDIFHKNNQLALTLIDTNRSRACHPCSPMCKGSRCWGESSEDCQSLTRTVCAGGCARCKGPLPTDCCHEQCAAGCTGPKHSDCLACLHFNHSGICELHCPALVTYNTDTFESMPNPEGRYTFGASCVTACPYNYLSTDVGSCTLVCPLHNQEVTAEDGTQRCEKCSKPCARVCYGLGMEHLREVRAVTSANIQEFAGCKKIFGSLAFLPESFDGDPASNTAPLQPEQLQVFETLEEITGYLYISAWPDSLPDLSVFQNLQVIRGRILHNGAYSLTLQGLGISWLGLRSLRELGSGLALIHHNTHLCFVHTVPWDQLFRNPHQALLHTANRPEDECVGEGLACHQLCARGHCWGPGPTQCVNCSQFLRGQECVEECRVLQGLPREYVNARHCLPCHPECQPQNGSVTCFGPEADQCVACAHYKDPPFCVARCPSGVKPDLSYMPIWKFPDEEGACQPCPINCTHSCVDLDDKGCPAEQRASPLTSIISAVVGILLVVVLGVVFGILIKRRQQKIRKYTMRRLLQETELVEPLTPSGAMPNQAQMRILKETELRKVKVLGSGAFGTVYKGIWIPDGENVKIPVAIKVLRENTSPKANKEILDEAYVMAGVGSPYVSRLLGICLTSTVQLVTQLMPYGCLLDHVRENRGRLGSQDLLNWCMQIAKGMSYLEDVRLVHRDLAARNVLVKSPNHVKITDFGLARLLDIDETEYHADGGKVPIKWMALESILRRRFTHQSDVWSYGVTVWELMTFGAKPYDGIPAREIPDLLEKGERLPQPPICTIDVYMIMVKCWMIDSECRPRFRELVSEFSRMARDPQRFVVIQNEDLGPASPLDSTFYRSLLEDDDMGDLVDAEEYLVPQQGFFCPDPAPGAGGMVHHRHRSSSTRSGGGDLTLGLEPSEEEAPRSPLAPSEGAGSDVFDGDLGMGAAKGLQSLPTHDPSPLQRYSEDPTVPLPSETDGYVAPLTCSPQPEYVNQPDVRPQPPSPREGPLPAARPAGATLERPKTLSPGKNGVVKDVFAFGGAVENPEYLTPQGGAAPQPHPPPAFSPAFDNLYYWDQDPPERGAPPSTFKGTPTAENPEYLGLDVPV
Procedure: as §1, §2

[2] = test system: BT-474 (human breast cancer cell); assay: In vitro proliferation inhibition assay of cell lines (CellTiter-Glo), BT-474; format: cell-based; conditions: BT-474 cells, 72 hours
Procedure: as §3
as §4, with “Cell culture and inoculation: on the first day of the experiment, normal cultured cells were taken, and in the exponential growth state, after digestion and dispersion, the cell density was then adjusted to 8.8×10^4 cells/mL for BT-474, and 6.6×10^4 cells/mL for N87, and 90 μL of which were inoculated to each well of a 96-well cell culture plate; after the inoculation was completed, the microplate was cultured under the conditions of 37° C. and 5% CO2 overnight.” left out

Chain of EGFR kinase (P00533 25-1210): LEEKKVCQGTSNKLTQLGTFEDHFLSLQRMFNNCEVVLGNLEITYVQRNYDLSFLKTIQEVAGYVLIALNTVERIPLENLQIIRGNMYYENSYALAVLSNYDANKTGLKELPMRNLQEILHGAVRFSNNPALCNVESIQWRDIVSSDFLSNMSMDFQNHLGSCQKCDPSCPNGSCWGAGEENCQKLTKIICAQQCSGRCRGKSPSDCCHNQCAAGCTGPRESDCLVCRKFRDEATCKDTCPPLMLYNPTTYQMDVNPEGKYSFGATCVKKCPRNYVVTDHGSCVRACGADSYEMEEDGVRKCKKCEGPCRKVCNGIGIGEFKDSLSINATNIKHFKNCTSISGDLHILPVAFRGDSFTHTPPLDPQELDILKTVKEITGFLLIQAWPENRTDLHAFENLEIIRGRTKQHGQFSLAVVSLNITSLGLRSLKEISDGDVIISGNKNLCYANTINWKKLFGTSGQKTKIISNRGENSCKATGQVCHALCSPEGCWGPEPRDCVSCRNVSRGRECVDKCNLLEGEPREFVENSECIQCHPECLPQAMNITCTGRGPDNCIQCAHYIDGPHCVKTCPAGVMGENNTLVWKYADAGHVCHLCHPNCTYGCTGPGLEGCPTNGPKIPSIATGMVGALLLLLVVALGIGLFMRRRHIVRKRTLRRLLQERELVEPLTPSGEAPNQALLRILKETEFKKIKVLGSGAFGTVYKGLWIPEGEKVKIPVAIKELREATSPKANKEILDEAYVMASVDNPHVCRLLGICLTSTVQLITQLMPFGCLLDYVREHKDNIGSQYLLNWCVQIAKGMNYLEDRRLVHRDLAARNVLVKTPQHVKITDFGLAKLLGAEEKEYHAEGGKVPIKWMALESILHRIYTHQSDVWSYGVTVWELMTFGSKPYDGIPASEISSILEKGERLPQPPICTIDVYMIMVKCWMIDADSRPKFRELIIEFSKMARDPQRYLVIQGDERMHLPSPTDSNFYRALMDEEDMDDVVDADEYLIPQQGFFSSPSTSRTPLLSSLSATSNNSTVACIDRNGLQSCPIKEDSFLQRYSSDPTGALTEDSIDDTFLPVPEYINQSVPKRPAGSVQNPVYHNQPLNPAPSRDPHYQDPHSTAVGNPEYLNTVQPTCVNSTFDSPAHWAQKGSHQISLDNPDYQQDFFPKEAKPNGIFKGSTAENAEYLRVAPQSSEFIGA

`Cc1cc(Nc2ncnc3ccc(NC(=O)/C=C/[C@H]4CCCN4C)cc23)ccc1Oc1cnc2ccnn2c1` was tested, and the IC50 (EGFR kinase) was 0.757 nM, the IC50 [1] was 1.6 nM and the IC50 (ErbB2 kinase) was 1.09 nM. For the same molecule, the IC50 [2] was 2.65 nM.

`Cc1cc(Nc2ncnc3ccc(NC(=O)/C=C/[C@H]4CCCN4C)cc23)ccc1Oc1ccc2nc[nH]c2c1` was tested, and the IC50 (EGFR kinase) was 1.5 nM, the IC50 [1] was 22.6 nM and the IC50 (ErbB2 kinase) was 0.689 nM. It also gave an IC50 [2] of 15.4 nM.

`Cc1cc(Nc2ncnc3ccc(NC(=O)C=CC4COCCN4)cc23)ccc1Oc1cc2nncn2cn1` (stereo in doubt) [Final product of Embodiment 28, (E)-N-(4-((4-([1,2,4]triazolo[4,3-c]pyrimidin-7-yloxy)-3-methylphenyl)amino)quinazolin-6-yl)-3-(morpholin-3-yl)acrylamide] was tested, and the IC50 (EGFR kinase) was 5.29 nM, the IC50 [1] was 33.4 nM and the IC50 (ErbB2 kinase) was 3.25 nM. The IC50 [2] was 11 nM.

For `Cc1cc(Nc2ncnc3ccc(NC(=O)/C=C/[C@@H]4CCCN4C)cc23)ccc1Oc1cc2nncn2cn1` [Final product of Embodiment 1-97, (S,E)-N-(4-((4-([1,2,4]triazolo[4,3-c]pyrimidin-7-yloxy)-3-methylphenyl)amino)quinazolin-6-yl)-3-(1-methylpyrrolidin-2-yl)acrylamide], the IC50 [1] was 10 nM.

`C=CC(=O)N1CCC[C@@H](Nc2ccc3ncnc(Nc4ccc(Oc5cc6nncn6cn5)c(C)c4)c3c2)C1` [Final product of Embodiment 7, (R)-1-(3-((4-((4-([1,2,4]triazolo[4,3-c]pyrimidin-7-yloxy)-3-methylphenyl)amino)quinazolin-6-yl)amino)piperidin-1-yl)propan-2-en-1-one] gave an IC50 (EGFR kinase) of 7.09 nM, an IC50 [1] of 65.5 nM and an IC50 (ErbB2 kinase) of 0.851 nM. It also gave an IC50 [2] of 49.5 nM.

For `C=CC(=O)Nc1ccc2ncc(C#N)c(Nc3ccc(Oc4cc5nncn5cn4)c(C)c3)c2c1` [Final product of Embodiment 9, N-(4-((4-([1,2,4]triazolo[4,3-c]pyrimidin-7-yloxy)-3-methylphenyl)amino)-3-cyanoquinolin-6-yl)acrylamide], the IC50 (EGFR kinase) was 13.8 nM, the IC50 [1] was 18.8 nM and the IC50 (ErbB2 kinase) was 7.98 nM. For the same molecule, the IC50 [2] was 9.62 nM.

Work on `Cc1cc(Nc2ncnc3ccc(/C=C/C(=O)N(C)C)cc23)ccc1Oc1cc2nncn2cn1` [Final product of Embodiment 15, (E)-3-(4-((4-([1,2,4]triazolo[4,3-c]pyrimidin-7-yloxy)-3-methylphenyl)amino)quinazolin-6-yl)-N,N-dimethylacrylamide] yielded an IC50 (EGFR kinase) of 156 nM, an IC50 [1] of 301 nM and an IC50 (ErbB2 kinase) of 17.5 nM. For the same molecule, the IC50 [2] was 162 nM.

`Cc1cc(Nc2ncnc3ccc(/C=C/C(=O)NC4CC4)cc23)ccc1Oc1cc2nncn2cn1` [Final product of Embodiment 16, (E)-3-(4-((4-([1,2,4]triazolo[4,3-c]pyrimidin-7-yloxy)-3-methylphenyl)amino)quinazolin-6-yl)-N-cyclopropylacrylamide] gave an IC50 (EGFR kinase) of 33.7 nM, an IC50 [1] of 692 nM and an IC50 (ErbB2 kinase) of 22 nM. It also gave an IC50 [2] of 256 nM.

For `Cc1cc(Nc2c(C#N)cnc3ccc(NC(=O)/C=C/[C@H]4CCCN4)cc23)ccc1Oc1cc2nncn2cn1` [Final product of Embodiment 21, (R,E)-N-(4-((4-([1,2,4]triazolo[4,3-c]pyrimidin-7-yloxy)-3-methylphenyl)amino)-3-cyanoquinolin-6-yl)-3-(pyrrolidin-2-yl)acrylamide], the IC50 (EGFR kinase) was 3.46 nM, the IC50 [1] was 94 nM and the IC50 (ErbB2 kinase) was 8.25 nM. For the same molecule, the IC50 [2] was 54.6 nM.

For `Cc1cc(Nc2ncnc3ccc(NC(=O)/C=C/[C@H]4CCCN4C)cc23)ccc1Oc1ccn2cnnc2c1` [Final product of Embodiment 25], the IC50 (EGFR kinase) was 23.4 nM, the IC50 [1] was 68.2 nM and the IC50 (ErbB2 kinase) was 8.47 nM. The IC50 [2] was 50.7 nM.

Molecule `Cc1cc(Nc2ncnc3ccc(NC(=O)/C=C/C4COCCN4)cc23)ccc1Oc1cc2nncn2cn1` (stereo not shown) [Final product of Embodiment 27, (E)-N-(4-((4-([1,2,4]triazolo[4,3-c]pyrimidin-7-yloxy)-3-methylphenyl)amino)quinazolin-6-yl)-3-(morpholin-3-yl)acrylamide] has an IC50 (EGFR kinase) of 2.21 nM, an IC50 [1] of 77.5 nM and an IC50 (ErbB2 kinase) of 1.61 nM. For the same molecule, the IC50 [2] was 25.7 nM.

Work on `Cc1cc(Nc2ncnc3ccc(NC(=O)/C=C/[C@H]4CCCN4C)cc23)ccc1Oc1cnn2cnnc2c1` [Final product of Embodiment 29, (R,E)-N-(4-((4-([1,2,4]triazolo[4,3-b]pyridazin-7-yloxy)-3-methylphenyl)amino)quinazolin-6-yl)-3-(1-methylpyrrolidin-2-yl) acrylamide] yielded an IC50 (EGFR kinase) of 20.5 nM, an IC50 [1] of 60.4 nM and an IC50 (ErbB2 kinase) of 15.2 nM. It also gave an IC50 [2] of 46.6 nM.

Molecule `Cc1cc(Nc2c(C#N)cnc3ccc(NC(=O)/C=C/[C@H]4CCCN4C)cc23)ccc1Oc1cnc2c(cnn2C)c1` [Final product of Embodiment 31] has an IC50 (EGFR kinase) of 65.2 nM, an IC50 [1] of 66.5 nM and an IC50 (ErbB2 kinase) of 220 nM. The IC50 [2] was 76 nM.

`COCCOc1cc2ncnc(Nc3ccc(Oc4cc5nncn5cn4)c(C)c3)c2cc1NC(=O)/C=C/[C@H]1CCCN1` [Final product of Embodiment 35] was tested, and the IC50 (EGFR kinase) was 0.514 nM, the IC50 [1] was 18.9 nM and the IC50 (ErbB2 kinase) was 2.67 nM. It also gave an IC50 [2] of 17.7 nM.

`COCCOc1cc2ncnc(Nc3ccc(Oc4cc5nncn5cn4)c(C)c3)c2cc1NC(=O)/C=C/[C@H]1CCCN1C` [Final product of Embodiment 36] gave an IC50 (EGFR kinase) of 0.53 nM, an IC50 [1] of 1.64 nM and an IC50 (ErbB2 kinase) of 1.1 nM. It also gave an IC50 [2] of 1.89 nM.

With `CCOc1cc2ncc(C#N)c(Nc3ccc(OCc4ccccn4)c(Cl)c3)c2cc1NC(=O)/C=C/[C@H]1CCCN1C` [drawing 239, reference compound] the IC50 [1] was 1.2 nM, the IC50 (ErbB2 kinase) was 1.67 nM and the IC50 [2] was 2.56 nM.

With `CCOc1cc2ncc(C#N)c(Nc3ccc(OCc4ccccn4)c(Cl)c3)c2cc1NC(=O)/C=C/CN(C)C` [drawing 240, reference compound] the IC50 [1] was 0.82 nM.
